Data from patent US10562912B2 (C&C Research Laboratories, priority 2013, dated 2020).

Assays:
Assay type in all cases: cell-based
STAT3 = target: T1, STAT3 (Homo sapiens, UniProt P40763); experiment: STAT3 reporter gene assay (luciferase), LNCaP stable cell line (pSTAT3-TA-luc), IL-6 stimulation
T1 construct: plasmid pSTAT3-TA-luc), which contains a stably operating STAT3 promoter; endogenous in cells
In short: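 LNCaP cells stably carrying pSTAT3-TA-luc, in RPMI1640 with 3% DCC-FBS, were treated with compound and then stimulated with 10 ng/mL IL-6 for 24–48 h at 37 °C. Luciferase activity was measured in lysates. A parallel plate measured viability by CellTiter-Glo, with stimulated 0.1% DMSO wells as the positive control.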

LNCaP = experiment: Cell growth inhibition assay, prostate cancer cell line LNCaP (medium with 10 ng/mL IL-6); conditions: Homo sapiens, medium supplemented with 10 ng/mL of IL-6, 10,000 cells/well
DU-145 = experiment: Cell growth inhibition assay, prostate cancer cell line DU-145; conditions: Homo sapiens, DU-145 prostate cancer cell line
In short: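 Luminescent CellTiter-Glo readout of viable cells after 72–96 h compound exposure (37° C., 5% CO2). Seeding: 3,000 cells/well for DU-145 and HCT116, 5,000 cells/well for SW626. Controls were medium without cells and 0.1% DMSO vehicle.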

HEL92.1.7 = experiment: Cell growth inhibition assay, blood cancer cell line HEL92.1.7; conditions: Homo sapiens, HEL 92.1.7, HEL92.1.7 blood cancer cell line
Experimental: The inhibitory effects of the compounds of the present invention against the growth of cancer cells were evaluated as shown below. The cancer cell lines including stomach cancer cell line (AGS), breast cancer cell lines (MDA-MB-231, MDA-MB-468, and BT-549), prostate cancer cell lines (LNCaP and DU-145), colon cancer cell line (HCT116), ovarian cancer cell line (SW626), liver cancer cell line (Hep3B), kidney cancer cell line (ACHN), lung cancer cell line (NCI-H23) and blood cancer cell lines (HEL92.1.7 and U266) were cultured under the protocol provided by each supplier. A medium supplemented with 10 ng/mL of IL-6 was used for LNCaP, a prostate cancer cell line, when treated with a drug. Each type of cells to be used in experiments were sub-cultured in a 96-well plate by counting the exact number of cells using Tali™ Image-based Cytometer (Life Technologies). In a 96-well plate, AGS, HCT116, and DU-145 were employed with 3,000 cells/well; NCI-H23, SW626, Hep3B, ACHN, BT-549, MDA-MB-231, HEL92.1.7, and U266 were employed with 5,000 cells/well; and LNCaP and MDA-MB-468 were employed with 10,000 cells/well. The cells were treated with the compounds listed in Examples which were diluted in various concentrations. Upon completion of the compounds treatment, AGS, HCT116, SW626, DU145, NCI-H23, Hep3B, ACHN, BT-549, LNCaP, HEL92.1.7, and U266 cells were cultured at 37° C. under 5% CO2 for from 72 to 96 hours, and MDA-MB-231 and MDA-MB-468 cells were cultured at 37° C. in air for from 72 to 96 hours. Subsequently, the cells were observed under microscope and drug precipitation and particular findings were investigated and recorded. And then, the 96-well plate was placed at room temperature for 30 minutes, added with 20 μL/well of CellTiter-Glo solution (Cat No. G7573, Promega) and shaken for 10 minutes, followed by being subjected to the measurement using PHERAstar™ microplate reader (BMG LABTECH) according to the supplier's general luminometer protocol. Wells where only culture liquid added without cell plating were used as a negative control, whereas wells where culture liquid containing 0.1% DMSO instead of the compounds listed in Examples were used as a positive control.

T1 sequence (P40763 whole entry): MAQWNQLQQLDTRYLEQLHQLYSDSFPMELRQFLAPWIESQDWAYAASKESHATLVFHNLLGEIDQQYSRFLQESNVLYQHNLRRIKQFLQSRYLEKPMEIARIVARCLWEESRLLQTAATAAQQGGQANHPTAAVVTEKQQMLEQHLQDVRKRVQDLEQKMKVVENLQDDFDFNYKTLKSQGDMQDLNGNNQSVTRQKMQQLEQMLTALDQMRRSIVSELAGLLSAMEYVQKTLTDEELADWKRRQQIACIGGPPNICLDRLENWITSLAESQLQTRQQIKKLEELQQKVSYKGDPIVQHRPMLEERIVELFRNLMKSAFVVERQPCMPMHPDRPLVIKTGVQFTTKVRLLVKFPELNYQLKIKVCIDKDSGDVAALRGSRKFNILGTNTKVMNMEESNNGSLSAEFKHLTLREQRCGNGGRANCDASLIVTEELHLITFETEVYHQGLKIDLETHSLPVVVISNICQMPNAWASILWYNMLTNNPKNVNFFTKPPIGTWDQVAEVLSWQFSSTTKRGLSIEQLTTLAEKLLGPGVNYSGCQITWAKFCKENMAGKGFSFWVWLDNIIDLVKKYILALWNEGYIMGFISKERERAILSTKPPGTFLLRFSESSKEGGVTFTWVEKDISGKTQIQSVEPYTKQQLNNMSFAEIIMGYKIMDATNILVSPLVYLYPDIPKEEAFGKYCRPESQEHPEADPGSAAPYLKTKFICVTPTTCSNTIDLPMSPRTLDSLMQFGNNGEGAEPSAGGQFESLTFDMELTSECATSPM

Structure (SMILES) | IC50 (STAT3) [µM] | IC50 (LNCaP) [µM] | IC50 (DU-145) [µM] | IC50 (HEL92.1.7) [µM]
COc1cc(OC(F)(F)F)cc(-c2cc(Cl)cc(NC(=O)c3cc4cc(NS(C)(=O)=O)c(F)cc4s3)c2)c1 [Example 325, N-(5-chloro-3′-methoxy-5′-(trifluoromethoxy)-[1,1′-biphenyl]-3-yl)-6-fluoro-5-(methylsulfonamido)benzo[b]thiophene-2-carboxamide] | 0.24 | 0.16 | 0.15 | 0.39
CC(C)Oc1cc(OC(F)(F)F)cc(C(C)(C)c2cc(Cl)cc(NC(=O)c3cc4cc(N(CCN(C)C)S(C)(=O)=O)c(F)cc4s3)c2)c1 [Example 219, N-(3-chloro-5-(2-(3-isopropoxy-5-(trifluoromethoxy)phenyl)propan-2-yl)phenyl)-5-(N-(2-(dimethylamino)ethyl)methylsulfonamido)-6-fluorobenzo[b]thiophene-2-carboxamide] | 1.19 | 0.19 | 0.18 | 0.9
CC(C)(c1cc(Br)cc(NC(=O)c2cc3cc(NS(C)(=O)=O)ncc3s2)c1)c1cc(OC(F)(F)F)cc(OC(F)(F)C(F)F)c1 [Example 89, N-(3-bromo-5-(2-(3-(1,1,2,2-tetrafluoroethoxy)-5-(trifluoromethoxy)phenyl)propan-2-yl)phenyl)-5-(methylsulfonamido)thieno[2,3-c]pyridine-2-carboxamide] | 0.047 | 0.07 | 0.048 | 0.22
CC(C)(c1cc(Cl)cc(NC(=O)c2cc3cc(NS(C)(=O)=O)ccc3s2)c1)c1ccc(F)c(F)c1 [Example 162, N-(3-chloro-5-(2-(3,4-difluorophenyl)propan-2-yl)phenyl)-5-(methylsulfonamido)benzo[b]thiophene-2-carboxamide] | 0.069 | 0.064 | 0.052 | 0.2
CC(C)Oc1cc(-c2ccnn2C)cc(C(C)(C)c2cc(Cl)cc(NC(=O)c3cc4cc(NS(C)(=O)=O)ccc4s3)c2)c1 [Example 142, N-(3-chloro-5-(2-(3-isopropoxy-5-(1-methyl-1H-pyrazol-5-yl)phenyl)propan-2-yl)phenyl)-5-(methylsulfonamido)benzo[b]thiophene-2-carboxamide] | 0.13 | 0.33 | 0.09 | 0.33
C=CS(=O)(=O)Nc1ccc2sc(C(=O)Nc3cc(Cl)cc(C(C)(C)c4cc(OC(C)C)cc(OC(F)(F)F)c4)c3)cc2c1 [Example 207, N-(3-chloro-5-(2-(3-isopropoxy-5-(trifluoromethoxy)phenyl)propan-2-yl)phenyl)-5-(vinylsulfonamido)benzo[b]thiophene-2-carboxamide] | 3 | > 1.1 | > 1.1 | > 1.1
COc1cc(OC(F)(F)F)cc(-c2cc(Cl)cc(NC(=O)c3cc4cc(NS(=O)(=O)C5CCOC5)ccc4s3)c2)c1 (stereo not shown) [Example 328, N-(5-chloro-3′-methoxy-5′-(trifluoromethoxy)-[1,1′-biphenyl]-3-yl)-5-((tetrahydrofuran)-3-sulfonamido)benzo[b]thiophene-2-carboxamide] | 0.34 | 0.34 | 0.39 | 0.5
CS(=O)(=O)Nc1ccc2sc(C(=O)Nc3cc(Br)cc(S(=O)(=O)N4CCc5c(F)cc(F)cc5C4)c3)cc2c1 [Example 419, N-(3-bromo-5-((5,7-difluoro-3,4-dihydroisoquinolin-2(1H)-yl)sulfonyl)phenyl)-5-(methylsulfonamido)benzo[b]thiophene-2-carboxamide] | 0.67 | 1 | 0.65 | 1.8
CC(C)(c1cc(Cl)cc(NC(=O)c2cc3cc(NS(C)(=O)=O)ccc3s2)c1)c1cc(OCCN2CCOCC2)cc(OC(F)(F)F)c1 [Example 90, N-(3-chloro-5-(2-(3-(2-morpholinoethoxy)-5-(trifluoromethoxy)phenyl)propan-2-yl)phenyl)-5-(methylsulfonamido)benzo[b]thiophene-2-carboxamide] | 0.043 | 0.22 | 0.048 | 0.23

Molecules with a lower IC50 (STAT3), results first:

IC50 (STAT3) [µM] | IC50 (LNCaP) [µM] | IC50 (DU-145) [µM] | IC50 (HEL92.1.7) [µM] | Structure (SMILES)
0.036 | 0.021 | 0.012 | 0.085 | CN(c1ccc(Cl)cc1)c1cc(Cl)cc(NC(=O)c2cc3cc(NS(C)(=O)=O)ccc3s2)c1 [Example 440, N-(3-chloro-5-((4-chlorophenyl)(methyl)amino)phenyl)-5-(methylsulfonamido)benzo[b]thiophene-2-carboxamide]
0.016 | 0.025 | 0.007 | 0.076 | CC(C)(c1cc(F)cc(NC(=O)c2cc3cc(NS(C)(=O)=O)ccc3s2)c1)c1cc(OC(F)(F)F)cc(OC(F)(F)C(F)F)c1 [Example 85, N-(3-fluoro-5-(2-(3-(1,1,2,2-tetrafluoroethoxy)-5-(trifluoromethoxy)phenyl)propan-2-yl)phenyl)-5-(methylsulfonamido)benzo[b]thiophene-2-carboxamide]
0.039 | 0.073 | 0.021 | 0.09 | Cn1cccc1C(C)(C)c1cc(Cl)cc(NC(=O)c2cc3cc(NS(C)(=O)=O)ccc3s2)c1 [Example 169, N-(3-chloro-5-(2-(1-methyl-1H-pyrrol-2-yl)propan-2-yl)phenyl)-5-(methylsulfonamido)benzo[b]thiophene-2-carboxamide]
0.011 | 0.013 | 0.016 | 0.019 | CN(c1cc2cc(C(=O)Nc3cc(Cl)cc(C(C)(C)c4ccc(Cl)cc4)c3)sc2cc1F)S(C)(=O)=O [Example 163, N-(3-chloro-5-(2-(4-chlorophenyl)propan-2-yl)phenyl)-6-fluoro-5-(N-methylmethylsulfonamido)benzo[b]thiophene-2-carboxamide]
0.007 | 0.05 | 0.014 | 0.066 | CC(C)Oc1cc(OC(F)(F)F)cc(C(C)(C)c2cc(Cl)cc(NC(=O)c3cc4cc(N5CCCCS5(=O)=O)ccc4s3)c2)c1 [Example 211, N-(3-chloro-5-(2-(3-isopropoxy-5-(trifluoromethoxy)phenyl)propan-2-yl)phenyl)-5-(1,1-dioxido-1,2-thiazinan-2-yl)benzo[b]thiophene-2-carboxamide]
0.023 | 0.025 | 0.012 | 0.1 | CC(C)(c1cc(Cl)cc(NC(=O)c2cc3cc(NS(C)(=O)=O)ccc3s2)c1)c1cc(OCC(F)F)cc(OC(F)(F)F)c1 [Example 83, N-(3-chloro-5-(2-(3-(2,2-difluoroethoxy)-5-(trifluoromethoxy)phenyl)propan-2-yl)phenyl)-5-(methylsulfonamido)benzo[b]thiophene-2-carboxamide]
0.012 | 0.006 | 0.006 | 0.014 | CC(C)Oc1cc(OC(F)(F)F)cc(C2(c3cc(Cl)cc(NC(=O)c4cc5cc(N(C)S(C)(=O)=O)c(F)cc5s4)c3)CC2)c1 [Example 430, N-(3-chloro-5-(1-(3-isopropoxy-5-(trifluoromethoxy)phenyl)cyclopropyl)phenyl)-6-fluoro-5-(N-methylmethylsulfonamido)benzo[b]thiophene-2-carboxamide]
